Assay results published in patent US11395486B2, “Antibacterial and antifungal composition” (ADEKA CORPORATION, priority 2017, dated 2022).

Assay: Evaluation of solution appearance
Format: physicochemical
Details: solution adjusted to the five-kind MIC, 4 mL tube, allowed to stand still, visually observed
Method: […] of each of the test microbial liquids was dispensed onto a microplate, and further, […] of each of antibacterial and antifungal solutions, in which the antibacterial and antifungal compositions prepared in Examples 1 and 2 and Comparative Examples 1 to 11 were adjusted to various concentrations with a culture medium, was added to the test microbial liquid, followed by stirring, to obtain a mixed solution. In this case, the pH of each of the antibacterial and antifungal solutions was from 6.89 to 7.24. Next, in each of the mixed solutions, culture was performed as follows. The bacterium mixed solution was cultured in a constant-temperature reservoir at 37° C. for 24 hours. The yeast mixed solution was cultured in the constant-temperature reservoir at 25° C. for 3 days. The mold mixed solution was cultured in the constant-temperature reservoir at 25° C. for 1 week. […] In addition, the appearance of the antibacterial and antifungal solution was evaluated as follows. […] The appearance of the solution was visually observed and evaluated in accordance with the following criteria. […]

For O=C([O-])c1ccccc1.[Na+] [compound 7, sodium benzoate], the “Evaluation of solution appearance” value was “◯”.

In the case of OCc1ccccc1 [Comparative Example 6, benzyl alcohol], the “Evaluation of solution appearance” value is reported as “◯”.
